Bounds are passed on as bounds.

The test system of data set [1] is Mus musculus. The data set can be described thus: Ability of the compound to protect mice against maximal electric shock (MES) induced convulsion in the presence of 10 mg/kg flumazenil; Range 54.9-102.9. It is filed as functional.
In data set [2] the test system is Mus musculus. The data set can be described thus: Ability of the compound to protect mice against pentylenetetrazole induced convulsion in the presence of 10 mg/kg flumazenil; Ranges 60.1-135.9. Type of data set: functional.
Data set [3] is filed under the species Mus musculus. Kind of data set: Lethal dose of in mice. Type of data set: functional.
Data set [4] in a line: Lethal dose in mice. The note with it: mouse, in vivo. Type of data set: toxicity.

As usually defined, the ED50 is the midpoint of the dose-response relation. What is called LD50 is the dose expected to kill half of the subjects tested. Consider `CSc1nnc(-c2ccccc2SCc2ccccc2)o1`, for which the ED50 in data set [1] was over 100 mg/kg; in data set [2], 93.2 mg/kg. In addition, the LD50 in data set [3] was over 300 mg/kg.

Regarding `Sc1nnc(-c2ccccc2SCc2ccccc2)o1`, the ED50 in data set [1] and in data set [2] was over 100 mg/kg in each case. This compound also yielded an LD50 in data set [3] of over 300 mg/kg.

Turning to `Nc1nnc(-c2ccccc2SCc2ccc(F)cc2)o1`, the ED50 in data set [1] is over 100 mg/kg; in data set [2], 29.1 mg/kg. The compound further showed an LD50 in data set [3] of over 300 mg/kg.

As for `Nc1nnc(-c2ccccc2SCc2ccccc2)o1`, the ED50 in data set [1] came out at 43.3 mg/kg; in data set [2] it was 89.2 mg/kg. The LD50 in data set [4] was over 300 mg/kg.

Turning to `CCSc1nnc(-c2ccccc2SCc2ccccc2)o1`, the ED50 in data set [1] and in data set [2] was over 100 mg/kg throughout. Also, the LD50 in data set [3] is over 300 mg/kg.

In the case of `Nc1nnc(-c2ccccc2SCc2ccc(Cl)cc2)o1`, the 50% effective dose (ED50) in data set [1] and in data set [2] was over 100 mg/kg throughout. In data set [3], this compound showed an LD50 of over 300 mg/kg.

Regarding `c1ccc(CSc2nnc(-c3ccccc3SCc3ccccc3)o2)cc1`, the ED50 in data set [1] and in data set [2] was over 100 mg/kg each time. The LD50 in data set [3] was over 300 mg/kg.

Take `CN1C(=O)CN=C(c2ccccc2)c2cc(Cl)ccc21` [DIAZEPAM]: the values for the ED50 in data set [1] and in data set [2] were 1.8 mg/kg and 1.4 mg/kg, respectively.

The values are drawn from ChEMBL document CHEMBL1139632, “Design and synthesis of new 2-substituted-5-(2-benzylthiophenyl)-1,3,4-oxadiazoles as benzodiazepine receptor agonists” (Bioorg Med Chem Lett, 2005).
